21 compounds from patent US11498903B2 (BRISTOL-MYERS SQUIBB COMPANY, priority 2017, dated 2022) can be followed below.

By EC50 is commonly meant the concentration at which the effect is half-maximal.

The structures appear in SMILES notation. Where two headings read alike, the source gives them in different places.

The target in this assay is T1, human APJ receptor (Homo sapiens, UniProt P35414).
T1 construct: expressed in transfected cells
T1 sequence (P35414 1-380): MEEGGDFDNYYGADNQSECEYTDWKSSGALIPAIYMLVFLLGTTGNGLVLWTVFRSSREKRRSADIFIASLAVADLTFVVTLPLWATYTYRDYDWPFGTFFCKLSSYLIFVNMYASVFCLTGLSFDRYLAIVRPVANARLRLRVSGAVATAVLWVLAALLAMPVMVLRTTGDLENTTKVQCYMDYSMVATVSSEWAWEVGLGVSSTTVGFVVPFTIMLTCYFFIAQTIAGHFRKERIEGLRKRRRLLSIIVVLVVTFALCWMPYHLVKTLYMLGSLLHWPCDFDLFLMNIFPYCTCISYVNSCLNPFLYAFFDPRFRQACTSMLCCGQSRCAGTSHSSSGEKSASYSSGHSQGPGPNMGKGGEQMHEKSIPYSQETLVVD
Description: Intracellular cAMP accumulation assay (APJ hcAMP, HTRF). In kind it is cell-based. As to the method: Intracellular cAMP Accumulation Assay
HEK293 cells stably expressing human APJ receptor were used to assess the activity of compounds. Cultured cells were detached and resuspended in the cAMP Homogeneous Time-Resolved Fluorescence (HTRF) assay buffer (Cisbio cat; #62AM4PEJ). The assay was performed in 384-well assay plates (Perkin-Elmer; cat #6008289) according to assay protocol provided by the manufacturer. Serial dilutions of a compound together with assay buffer containing […] IBMX and 2 μM forskolin were added to each well containing 5,000 cells and incubated for 30 minutes at room temperature. Subsequently, cAMP D2 reagent was added in the lysis buffer followed by the EuK antibody (Cisbio; cat #62AM4PEJ) and incubated for 60 min. The fluorescence emission ratio was measured using fluorometer. The intracellular cAMP concentrations (compound-stimulated inhibition of forskolin-mediated cAMP production) were calculated by extrapolation from a standard curve using known cAMP concentrations. The EC50 values were obtained by fitting the data to a sigmoidal concentration-response curve with variable slope. The maximal achievable inhibition of forskolin-induced cAMP levels (Ymax) for each compound was expressed as relative percentage of inhibition attained using pyroglutamated apelin-13 ((Pyrl)apelin-13) peptide, which was set to 100%.
The exemplified Examples disclosed below were tested in the APJ in vitro assays described above and were found having human APJ cyclic AMP (hcAMP) activity. Table 1 lists hcAMP EC50 values measured for the following examples. Ranges are as followε: A=0.0-10 nM; B=10.01-100 nM; C=101-500 nM.

Setting [1] is: Table 1, HEK293 cells stably expressing human APJ receptor, inhibition of forskolin-mediated cAMP production, read-out: APJ hcAMP EC50.
[2] abbreviates: human APJ, cAMP, potency range class, read-out: APJ cAMP Human EC50.
[3] abbreviates: Table 2, HEK293 cells stably expressing human APJ receptor, read-out: APJ cAMP Human EC50.
Where [4] appears, read: Table 3, HEK293 cells stably expressing human APJ receptor, read-out: APJ cAMP Human EC50.

In the case of `CCC[C@@H](NC(=O)c1ccc(-c2c(Cl)cccc2-c2nc3cc(F)cc(F)c3[nH]2)c(C(=O)O)c1)c1ccccc1` (atropisomer, axis not shown) [Example 96, (S)-2′-chloro-6′-(5,7-difluoro-1H-1,3-benzodiazol-2-yl)-4-{[(1R)-1-phenylbutyl]carbamoyl}-[1,1′-biphenyl]-2-carboxylic acid], the EC50 under setting [1] was below 10 nM.

In the case of `O=C(N[C@H](c1ccccc1)C1CC1)c1ccc(-c2c(Cl)cccc2-c2nc3ccccc3[nH]2)c(C(=O)O)c1` (single isomer, unassigned) [Example 229], the EC50 fell in the range of 10 to 100 nM under setting [1] and 10 to 100 nM under setting [2].

In the case of `CCC[C@@H](NC(=O)c1ccc(-c2ccc(F)cc2-c2nc3cc(OC)ccc3[nH]2)c(C(=O)O)c1)c1ccccc1` [Example 37, 4′-fluoro-2′-(5-methoxy-1H-1,3-benzodiazol-2-yl)-4-{[(1R)-1-phenylbutyl]carbamoyl}-[1,1′-biphenyl]-2-carboxylic acid], the EC50 under setting [1] is below 10 nM and the EC50 under setting [3] is below 10 nM.

With `O=C(NC(CCC(F)(F)F)c1ccccc1)c1ccc(-c2cc(Cl)ccc2-c2nc3ccccc3[nH]2)c(C(=O)O)c1` (racemic) [Example 158, 2′-(1H-Benzo[d]imidazol-2-yl)-5′-chloro-4-((4,4,4-trifluoro-1-phenylbutyl)carbamoyl)-[1,1′-biphenyl]-2-carboxylic acid], the EC50 by setting is: under setting [1], 10 to 100 nM; under setting [2], 10 to 100 nM.

For the compound `CC(C)(O)C[C@@H](NC(=O)c1ccc(-c2c(Cl)cccc2-c2nc3ccccc3[nH]2)c(C(=O)O)c1)c1ccccc1` (atropisomer, axis not shown) [Example 151, (S)-2′-(1H-1,3-benzodiazol-2-yl)-6′-chloro-4-{[(1R)-3-hydroxy-3-methyl-1-phenylbutyl]carbamoyl}-[1,1′-biphenyl]-2-carboxylic acid], the 50% effective concentration (EC50) is below 10 nM under setting [1] and below 10 nM under setting [4].

Regarding `CCC[C@@H](NC(=O)c1ccc(-c2c(C)cccc2-c2nc3ccccc3n2C)c(C(=O)O)c1)c1ccccc1` [Example 137, 2′-methyl-6′-(1-methyl-1H-1,3-benzodiazol-2-yl)-4-{[(1R)-1-phenylbutyl]carbamoyl}-[1,1′-biphenyl]-2-carboxylic acid], the concentration for a half-maximal effect (EC50) was in the range of 10 to 100 nM under setting [1] and 10 to 100 nM under setting [4].

In the case of `CCC[C@@H](NC(=O)c1ccc(-c2c(Cl)cccc2-c2nc3cc(OC)ccc3[nH]2)c(C(=O)O)c1)c1ccccc1` (atropisomer, axis not shown) [Example 132, (S)-2′-chloro-6′-(5-methoxy-1H-1,3-benzodiazol-2-yl)-4-{[(1R)-1-phenylbutyl]carbamoyl}-[1,1′-biphenyl]-2-carboxylic acid], the half-maximal effective concentration (EC50) reads like this: under setting [1], below 10 nM; under setting [4], below 10 nM.

For the compound `CCC[C@@H](NC(=O)c1ccc(-c2cc(C)ccc2-c2nc3ccccc3[nH]2)c(C(=O)O)c1)c1ccccc1` [Example 32, 2′-(1H-1,3-benzodiazol-2-yl)-5′-methyl-4-{[(1R)-1-phenylbutyl]carbamoyl}-[1,1′-biphenyl]-2-carboxylic acid], the EC50 reads like this: under setting [1], below 10 nM; under setting [3], below 10 nM.

Take `CCC[C@@H](NC(=O)c1ccc(-c2c(Cl)cccc2-c2nc3cc(F)cc(F)c3[nH]2)c(C(=O)O)c1)c1ccccc1` (atropisomer, axis not shown) [Example 90, (S)-2′-chloro-6′-(5,7-difluoro-1H-1,3-benzodiazol-2-yl)-4-{[(1R)-1-phenylbutyl]carbamoyl}-[1,1′-biphenyl]-2-carboxylic acid]: the concentration giving a half-maximal response (EC50) was below 10 nM under setting [1] and below 10 nM under setting [4].

In the case of `CCCC(NC(=O)c1ccc(-c2cc(Cl)ccc2-c2nc3cc(OC)ccc3[nH]2)c(C(=O)O)c1)c1ccccc1OC` (centres unmarked) [Example 218, 5′-chloro-2′-(5-methoxy-1H-1,3-benzodiazol-2-yl)-4-{[1-(2-methoxyphenyl)butyl]carbamoyl}-[1,1′-biphenyl]-2-carboxylic acid], the concentration for a half-maximal effect (EC50) runs as follows: under setting [1], below 10 nM; under setting [2], below 10 nM.

`CCC[C@H](NC(=O)c1ccc(-c2c(Cl)cccc2-c2nc3ccccc3[nH]2)c(C(=O)O)c1)c1cccnc1` [Example 190, (S)-2′-(1H-1,3-benzodiazol-2-yl)-6′-chloro-4-{[1-(pyridin-3-yl)butyl]carbamoyl}[1,1′-biphenyl]-2-carboxylic acid]: the 50% effective concentration (EC50) runs as follows: under setting [1], 10 to 100 nM; under setting [2], 10 to 100 nM.

In the case of `CCC[C@@H](NC(=O)c1ccc(-c2ccc(Cl)cc2-c2nc3cc(OC)ccc3[nH]2)c(C(=O)O)c1)c1ccccc1` [Example 57, 4′-chloro-2′-(5-methoxy-1H-1,3-benzodiazol-2-yl)-4-{[(1R)-1-phenylbutyl]carbamoyl}-[1,1′-biphenyl]-2-carboxylic acid], the EC50 is below 10 nM under setting [1] and below 10 nM under setting [3].

Turning to `COc1cc2nc(-c3cccc(Cl)c3-c3ccc(C(=O)N[C@H](c4ccc(Cl)cc4)C4CC4)cc3CO)[nH]c2cc1F` (single isomer, unassigned) [Example 205], the EC50 was in the range of 10 to 100 nM under setting [1] and 10 to 100 nM under setting [2].

Turning to `CC(C)(C)CC(NC(=O)c1ccc(-c2cc(Cl)ccc2-c2nc3ccccc3[nH]2)c(C(=O)O)c1)c1ccccc1` (racemic) [Example 212, 2′-(1H-1,3-benzodiazol-2-yl)-5′-chloro-4-[(3,3-dimethyl-1-phenylbutyl)carbamoyl]-[1,1′-biphenyl]-2-carboxylic acid], the EC50 is, setting by setting: under setting [1], 10 to 100 nM; under setting [2], 10 to 100 nM.

On to `CCC[C@@H](NC(=O)c1ccc(-c2cc(Cl)ccc2-c2nc3cc(OC)ccc3[nH]2)c(-c2nc(=S)o[nH]2)c1)c1ccccc1` [Example 10, (R)-5′-chloro-2′-(5-methoxy-1H-benzo[d]imidazol-2-yl)-N-(1-phenylbutyl)-2-(5-thioxo-2,5-dihydro-1,2,4-oxadiazol-3-yl)-[1,1′-biphenyl]-4-carboxamide], for which the EC50 under setting [1] lay within 101 to 500 nM and the EC50 under setting [3] is 101 to 500 nM.

Take `CCCC(NC(=O)c1ccc(-c2c(Cl)cccc2-c2nc3ccccc3[nH]2)c(C(=O)O)c1)c1ccccn1` [Example 180, (S)-2′-(1H-1,3-benzodiazol-2-yl)-6′-chloro-4-{[1-(pyridin-2-yl)butyl]carbamoyl}-[1,1′-biphenyl]-2-carboxylic acid]: the EC50 is, setting by setting: under setting [1], below 10 nM; under setting [2], below 10 nM.

`CCC[C@@H](NC(=O)c1ccc(-c2cc(C(F)(F)F)ccc2-c2nc3cc(OC)ccc3[nH]2)c(C(=O)O)c1)c1ccccc1` [Example 56, 2′-(5-methoxy-1H-1,3-benzodiazol-2-yl)-4-{[(1R)-1-phenylbutyl]carbamoyl}-5′-(trifluoromethyl)-[1,1′-biphenyl]-2-carboxylic acid]: the EC50 reads like this: under setting [1], below 10 nM; under setting [3], below 10 nM.

Consider `COc1cc2[nH]c(-c3cccc(Cl)c3-c3ccc(C(=O)NCCC(C)C)cc3C(=O)O)nc2cc1F` [Example 114, (S)-2′-chloro-6′-(5-fluoro-6-methoxy-1H-1,3-benzodiazol-2-yl)-4-[(3-methylbutyl)carbamoyl]-[1,1′-biphenyl]-2-carboxylic acid], for which the EC50 reads like this: under setting [1], below 10 nM; under setting [4], below 10 nM.

For `CCC(NC(=O)c1ccc(-c2cc(Cl)ccc2-c2nc3ccccc3[nH]2)c(C(=O)O)c1)c1ccccn1` (racemic) [Example 213, 2′-(1H-1,3-benzodiazol-2-yl)-5′-chloro-4-{[1-(pyridin-2-yl)propyl]carbamoyl}-[1,1′-biphenyl]-2-carboxylic acid], the half-maximal effective concentration (EC50) runs as follows: under setting [1], 10 to 100 nM; under setting [2], 10 to 100 nM.

In the case of `CCC[C@@H](NC(=O)c1ccc(-c2c(Cl)cccc2-c2nc3ccc(F)c(F)c3[nH]2)c(C(=O)O)c1)C1CCCCC1` (atropisomer, axis not shown) [Example 159, (S)-2′-chloro-4-{[(1R)-1-cyclohexylbutyl]carbamoyl}-6′-(6,7-difluoro-1H-1,3-benzodiazol-2-yl)-[1,1′-biphenyl]-2-carboxylic acid], the EC50 is, setting by setting: under setting [1], below 10 nM; under setting [2], below 10 nM.

Regarding `CCC[C@@H](NC(=O)c1ccc(-c2c(Cl)cccc2-c2ncc(-c3cccc(OC)c3)[nH]2)c(C(=O)O)c1)c1ccccc1` (atropisomer, axis not shown) [Example 103, (S)-2′-chloro-6′-[5-(3-methoxyphenyl)-1H-imidazol-2-yl]-4-{[(1R)-1-phenylbutyl]carbamoyl}-[1,1′-biphenyl]-2-carboxylic acid], the concentration giving a half-maximal response (EC50) is below 10 nM under setting [1] and below 10 nM under setting [4].
